Data taken from ChEMBL document CHEMBL3991601, “The target landscape of clinical kinase drugs” (Science, 2017).
Calls of active or inactive are those of the source. For most assays here, no stated cut-off is given here; in the data, actives have a measured Kd and inactives only a lower limit.

Target: T1, Breakpoint cluster region protein (Homo sapiens, UniProt P11274)
T1 sequence (P11274 whole entry): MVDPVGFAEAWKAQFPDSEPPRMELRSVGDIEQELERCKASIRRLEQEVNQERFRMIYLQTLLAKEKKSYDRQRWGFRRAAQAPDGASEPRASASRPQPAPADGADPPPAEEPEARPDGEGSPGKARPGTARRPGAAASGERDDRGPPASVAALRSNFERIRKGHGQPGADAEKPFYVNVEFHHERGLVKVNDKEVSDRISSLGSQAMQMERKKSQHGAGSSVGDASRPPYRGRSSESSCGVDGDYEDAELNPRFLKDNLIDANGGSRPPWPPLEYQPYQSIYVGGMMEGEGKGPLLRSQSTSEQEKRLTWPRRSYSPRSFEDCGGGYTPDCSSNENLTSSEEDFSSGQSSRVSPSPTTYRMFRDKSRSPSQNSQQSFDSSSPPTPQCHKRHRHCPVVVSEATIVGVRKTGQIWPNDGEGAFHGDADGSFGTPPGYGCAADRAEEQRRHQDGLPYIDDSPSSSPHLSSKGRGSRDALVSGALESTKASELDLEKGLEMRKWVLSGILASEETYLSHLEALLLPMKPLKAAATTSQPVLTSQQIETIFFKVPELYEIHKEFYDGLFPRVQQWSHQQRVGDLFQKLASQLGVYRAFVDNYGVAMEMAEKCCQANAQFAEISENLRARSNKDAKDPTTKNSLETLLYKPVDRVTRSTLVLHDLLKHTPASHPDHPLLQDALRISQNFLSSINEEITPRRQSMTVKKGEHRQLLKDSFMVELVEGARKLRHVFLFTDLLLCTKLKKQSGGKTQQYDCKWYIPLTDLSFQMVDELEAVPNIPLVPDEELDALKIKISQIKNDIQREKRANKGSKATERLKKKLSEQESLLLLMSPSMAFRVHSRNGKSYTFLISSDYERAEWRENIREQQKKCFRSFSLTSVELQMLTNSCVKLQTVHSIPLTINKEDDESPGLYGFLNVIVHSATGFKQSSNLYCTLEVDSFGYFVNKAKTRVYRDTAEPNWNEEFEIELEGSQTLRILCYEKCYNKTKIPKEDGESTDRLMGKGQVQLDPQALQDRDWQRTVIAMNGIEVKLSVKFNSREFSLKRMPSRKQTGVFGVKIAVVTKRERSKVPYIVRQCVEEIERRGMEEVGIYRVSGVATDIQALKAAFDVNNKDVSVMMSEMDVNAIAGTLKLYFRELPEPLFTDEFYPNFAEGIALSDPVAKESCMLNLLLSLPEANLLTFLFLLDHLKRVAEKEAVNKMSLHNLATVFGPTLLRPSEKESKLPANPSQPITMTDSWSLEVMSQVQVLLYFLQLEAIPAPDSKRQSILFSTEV

Structure (SMILES) | Kd
CNS(=O)(=O)Nc1nccc(Cc2c(C)c3ccc(Oc4ncccn4)cc3oc2=O)c1F [AVUTOMETINIB] | > 30 µM (inactive)
COc1cc(CCc2cc(NC(=O)c3ccc(N4C[C@@H](C)N[C@@H](C)C4)cc3)n[nH]2)cc(OC)c1 [AZD-4547] | > 30 µM (inactive)
Cc1cc([C@@H](C)Nc2ccccc2C(=O)O)c2nc(N3CCOCC3)cc(=O)n2c1 [AZD-6482] | > 30 µM (inactive)
COc1ccc(-c2ccc3c(N4CCOC[C@@H]4C)nc(N4CCOC[C@@H]4C)nc3n2)cc1CO [AZD-8055] | > 30 µM (inactive)
C[C@@H](Nc1cc(F)cc(F)c1)c1cc(C(=O)N(C)C)cc2c(=O)cc(N3CCOCC3)oc12 [AZD-8186] | > 30 µM (inactive)
Cc1ccc(NC(=O)c2ccc(CN3CC[C@H](N(C)C)C3)c(C(F)(F)F)c2)cc1Nc1nccc(-c2cncnc2)n1 [BAFETINIB] | 0.015 µM (active)
CCS(=O)(=O)N1CC(CC#N)(n2cc(-c3ncnc4[nH]ccc34)cn2)C1 [BARICITINIB] | > 30 µM (inactive)

Target: Dual specificity mitogen-activated protein kinase kinase 2 (Homo sapiens, UniProt P36507)
Sequence (P36507 whole entry): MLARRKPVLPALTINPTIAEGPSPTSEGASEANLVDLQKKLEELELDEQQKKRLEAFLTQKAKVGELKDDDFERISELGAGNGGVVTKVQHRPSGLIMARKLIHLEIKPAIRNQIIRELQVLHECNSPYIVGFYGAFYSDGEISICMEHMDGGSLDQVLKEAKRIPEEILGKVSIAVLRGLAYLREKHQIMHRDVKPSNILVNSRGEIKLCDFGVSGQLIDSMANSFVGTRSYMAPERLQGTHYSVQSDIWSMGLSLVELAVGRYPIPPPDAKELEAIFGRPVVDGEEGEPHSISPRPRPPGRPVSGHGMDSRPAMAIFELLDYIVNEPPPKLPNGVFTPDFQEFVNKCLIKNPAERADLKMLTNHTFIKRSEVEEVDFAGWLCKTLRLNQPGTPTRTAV

Structure (SMILES) | Kd
COc1cc(CCc2cc(NC(=O)c3ccc(N4C[C@@H](C)N[C@@H](C)C4)cc3)n[nH]2)cc(OC)c1 [AZD-4547] | > 30 µM (inactive)
Cc1cc([C@@H](C)Nc2ccccc2C(=O)O)c2nc(N3CCOCC3)cc(=O)n2c1 [AZD-6482] | > 30 µM (inactive)
COc1ccc(-c2ccc3c(N4CCOC[C@@H]4C)nc(N4CCOC[C@@H]4C)nc3n2)cc1CO [AZD-8055] | > 30 µM (inactive)
C[C@@H](Nc1cc(F)cc(F)c1)c1cc(C(=O)N(C)C)cc2c(=O)cc(N3CCOCC3)oc12 [AZD-8186] | > 30 µM (inactive)
Cc1ccc(NC(=O)c2ccc(CN3CC[C@H](N(C)C)C3)c(C(F)(F)F)c2)cc1Nc1nccc(-c2cncnc2)n1 [BAFETINIB] | > 30 µM (inactive)
CCS(=O)(=O)N1CC(CC#N)(n2cc(-c3ncnc4[nH]ccc34)cn2)C1 [BARICITINIB] | > 30 µM (inactive)

Target: T2, Mitogen-activated protein kinase 15 (Homo sapiens, UniProt Q8TD08)
T2 sequence (Q8TD08 whole entry): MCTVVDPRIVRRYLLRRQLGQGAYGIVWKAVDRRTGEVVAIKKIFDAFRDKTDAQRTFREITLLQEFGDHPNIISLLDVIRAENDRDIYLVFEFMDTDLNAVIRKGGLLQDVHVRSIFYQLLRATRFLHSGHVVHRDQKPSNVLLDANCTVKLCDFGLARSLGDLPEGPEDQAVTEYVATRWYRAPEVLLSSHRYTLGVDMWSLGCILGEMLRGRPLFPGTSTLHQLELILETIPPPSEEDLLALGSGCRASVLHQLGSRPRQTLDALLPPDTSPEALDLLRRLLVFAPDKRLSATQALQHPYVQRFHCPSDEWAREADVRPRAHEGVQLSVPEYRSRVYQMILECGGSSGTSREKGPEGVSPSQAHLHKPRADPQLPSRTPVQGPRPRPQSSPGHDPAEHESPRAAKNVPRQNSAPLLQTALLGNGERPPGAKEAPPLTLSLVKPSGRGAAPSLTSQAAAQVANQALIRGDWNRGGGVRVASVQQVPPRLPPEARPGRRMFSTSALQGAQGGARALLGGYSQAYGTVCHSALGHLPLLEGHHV

Structure (SMILES) | Kd
CNS(=O)(=O)Nc1nccc(Cc2c(C)c3ccc(Oc4ncccn4)cc3oc2=O)c1F [AVUTOMETINIB] | > 30 µM (inactive)
COc1cc(CCc2cc(NC(=O)c3ccc(N4C[C@@H](C)N[C@@H](C)C4)cc3)n[nH]2)cc(OC)c1 [AZD-4547] | > 30 µM (inactive)
Cc1cc([C@@H](C)Nc2ccccc2C(=O)O)c2nc(N3CCOCC3)cc(=O)n2c1 [AZD-6482] | > 30 µM (inactive)
COc1ccc(-c2ccc3c(N4CCOC[C@@H]4C)nc(N4CCOC[C@@H]4C)nc3n2)cc1CO [AZD-8055] | > 30 µM (inactive)
C[C@@H](Nc1cc(F)cc(F)c1)c1cc(C(=O)N(C)C)cc2c(=O)cc(N3CCOCC3)oc12 [AZD-8186] | > 30 µM (inactive)
Cc1ccc(NC(=O)c2ccc(CN3CC[C@H](N(C)C)C3)c(C(F)(F)F)c2)cc1Nc1nccc(-c2cncnc2)n1 [BAFETINIB] | > 30 µM (inactive)
CCS(=O)(=O)N1CC(CC#N)(n2cc(-c3ncnc4[nH]ccc34)cn2)C1 [BARICITINIB] | > 30 µM (inactive)

Target: Serine/threonine-protein kinase pim-1 (Homo sapiens, UniProt P11309)
Sequence (P11309 whole entry): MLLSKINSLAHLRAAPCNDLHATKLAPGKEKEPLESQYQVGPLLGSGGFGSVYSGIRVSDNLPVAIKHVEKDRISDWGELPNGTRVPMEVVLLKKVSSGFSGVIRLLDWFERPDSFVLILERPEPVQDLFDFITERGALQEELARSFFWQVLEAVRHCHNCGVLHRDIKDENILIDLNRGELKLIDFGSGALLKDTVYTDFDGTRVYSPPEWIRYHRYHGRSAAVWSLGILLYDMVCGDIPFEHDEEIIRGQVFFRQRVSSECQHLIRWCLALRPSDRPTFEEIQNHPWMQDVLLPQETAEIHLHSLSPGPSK

Structure (SMILES) | Kd
CNS(=O)(=O)Nc1nccc(Cc2c(C)c3ccc(Oc4ncccn4)cc3oc2=O)c1F [AVUTOMETINIB] | > 30 µM (inactive)
COc1cc(CCc2cc(NC(=O)c3ccc(N4C[C@@H](C)N[C@@H](C)C4)cc3)n[nH]2)cc(OC)c1 [AZD-4547] | > 30 µM (inactive)
Cc1cc([C@@H](C)Nc2ccccc2C(=O)O)c2nc(N3CCOCC3)cc(=O)n2c1 [AZD-6482] | > 30 µM (inactive)
COc1ccc(-c2ccc3c(N4CCOC[C@@H]4C)nc(N4CCOC[C@@H]4C)nc3n2)cc1CO [AZD-8055] | > 30 µM (inactive)
C[C@@H](Nc1cc(F)cc(F)c1)c1cc(C(=O)N(C)C)cc2c(=O)cc(N3CCOCC3)oc12 [AZD-8186] | > 30 µM (inactive)
Cc1ccc(NC(=O)c2ccc(CN3CC[C@H](N(C)C)C3)c(C(F)(F)F)c2)cc1Nc1nccc(-c2cncnc2)n1 [BAFETINIB] | > 30 µM (inactive)
CCS(=O)(=O)N1CC(CC#N)(n2cc(-c3ncnc4[nH]ccc34)cn2)C1 [BARICITINIB] | > 30 µM (inactive)

Target: 5'-AMP-activated protein kinase catalytic subunit alpha-1 (Homo sapiens, UniProt Q13131)
Sequence (Q13131 whole entry): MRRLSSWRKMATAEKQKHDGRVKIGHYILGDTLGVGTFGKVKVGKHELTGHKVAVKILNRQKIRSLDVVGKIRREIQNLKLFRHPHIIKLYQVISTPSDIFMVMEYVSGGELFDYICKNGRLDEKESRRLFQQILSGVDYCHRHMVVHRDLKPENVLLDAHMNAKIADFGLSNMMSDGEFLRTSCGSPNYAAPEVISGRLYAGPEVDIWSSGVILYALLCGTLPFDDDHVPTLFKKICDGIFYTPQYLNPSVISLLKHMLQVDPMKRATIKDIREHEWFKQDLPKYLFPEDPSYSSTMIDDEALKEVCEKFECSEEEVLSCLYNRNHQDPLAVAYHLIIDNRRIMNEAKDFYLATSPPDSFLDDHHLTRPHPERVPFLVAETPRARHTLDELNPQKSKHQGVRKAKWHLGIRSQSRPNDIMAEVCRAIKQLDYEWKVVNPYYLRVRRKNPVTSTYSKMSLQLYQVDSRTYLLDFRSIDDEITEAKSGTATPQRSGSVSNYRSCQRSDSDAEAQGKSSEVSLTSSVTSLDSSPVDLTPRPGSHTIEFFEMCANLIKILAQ

Structure (SMILES) | Kd
CNS(=O)(=O)Nc1nccc(Cc2c(C)c3ccc(Oc4ncccn4)cc3oc2=O)c1F [AVUTOMETINIB] | > 30 µM (inactive)
COc1cc(CCc2cc(NC(=O)c3ccc(N4C[C@@H](C)N[C@@H](C)C4)cc3)n[nH]2)cc(OC)c1 [AZD-4547] | > 30 µM (inactive)
Cc1cc([C@@H](C)Nc2ccccc2C(=O)O)c2nc(N3CCOCC3)cc(=O)n2c1 [AZD-6482] | > 30 µM (inactive)
COc1ccc(-c2ccc3c(N4CCOC[C@@H]4C)nc(N4CCOC[C@@H]4C)nc3n2)cc1CO [AZD-8055] | > 30 µM (inactive)
C[C@@H](Nc1cc(F)cc(F)c1)c1cc(C(=O)N(C)C)cc2c(=O)cc(N3CCOCC3)oc12 [AZD-8186] | > 30 µM (inactive)
Cc1ccc(NC(=O)c2ccc(CN3CC[C@H](N(C)C)C3)c(C(F)(F)F)c2)cc1Nc1nccc(-c2cncnc2)n1 [BAFETINIB] | > 30 µM (inactive)
CCS(=O)(=O)N1CC(CC#N)(n2cc(-c3ncnc4[nH]ccc34)cn2)C1 [BARICITINIB] | > 30 µM (inactive)

Target: Protein-tyrosine kinase 2-beta (Homo sapiens, UniProt Q14289)
Sequence (Q14289 whole entry): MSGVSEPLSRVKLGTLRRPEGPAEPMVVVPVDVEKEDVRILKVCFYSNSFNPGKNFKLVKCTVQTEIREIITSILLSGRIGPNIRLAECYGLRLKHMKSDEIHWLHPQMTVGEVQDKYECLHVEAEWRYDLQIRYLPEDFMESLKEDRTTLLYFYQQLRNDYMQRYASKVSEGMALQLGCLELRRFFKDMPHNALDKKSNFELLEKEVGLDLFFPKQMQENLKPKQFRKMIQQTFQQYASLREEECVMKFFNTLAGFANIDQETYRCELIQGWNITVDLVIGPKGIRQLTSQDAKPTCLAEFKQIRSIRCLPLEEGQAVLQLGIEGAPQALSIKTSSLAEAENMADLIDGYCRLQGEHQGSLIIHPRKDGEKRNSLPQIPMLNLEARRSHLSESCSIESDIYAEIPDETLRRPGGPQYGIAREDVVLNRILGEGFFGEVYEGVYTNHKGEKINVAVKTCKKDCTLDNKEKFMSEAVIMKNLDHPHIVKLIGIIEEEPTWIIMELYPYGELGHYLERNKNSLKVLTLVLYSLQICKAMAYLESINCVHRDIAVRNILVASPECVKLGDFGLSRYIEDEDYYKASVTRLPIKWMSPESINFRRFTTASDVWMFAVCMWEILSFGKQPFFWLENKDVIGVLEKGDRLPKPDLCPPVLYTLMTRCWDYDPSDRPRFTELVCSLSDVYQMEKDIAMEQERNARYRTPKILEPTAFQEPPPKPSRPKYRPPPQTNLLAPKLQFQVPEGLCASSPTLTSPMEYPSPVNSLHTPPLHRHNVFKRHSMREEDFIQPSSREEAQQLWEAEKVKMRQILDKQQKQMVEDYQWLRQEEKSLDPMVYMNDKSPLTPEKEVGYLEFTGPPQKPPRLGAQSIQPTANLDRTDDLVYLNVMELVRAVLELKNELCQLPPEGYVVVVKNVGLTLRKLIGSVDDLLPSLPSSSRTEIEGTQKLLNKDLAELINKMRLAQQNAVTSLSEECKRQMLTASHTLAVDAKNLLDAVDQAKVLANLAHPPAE

Structure (SMILES) | Kd
CNS(=O)(=O)Nc1nccc(Cc2c(C)c3ccc(Oc4ncccn4)cc3oc2=O)c1F [AVUTOMETINIB] | > 30 µM (inactive)
COc1cc(CCc2cc(NC(=O)c3ccc(N4C[C@@H](C)N[C@@H](C)C4)cc3)n[nH]2)cc(OC)c1 [AZD-4547] | > 30 µM (inactive)
Cc1cc([C@@H](C)Nc2ccccc2C(=O)O)c2nc(N3CCOCC3)cc(=O)n2c1 [AZD-6482] | > 30 µM (inactive)
COc1ccc(-c2ccc3c(N4CCOC[C@@H]4C)nc(N4CCOC[C@@H]4C)nc3n2)cc1CO [AZD-8055] | > 30 µM (inactive)
C[C@@H](Nc1cc(F)cc(F)c1)c1cc(C(=O)N(C)C)cc2c(=O)cc(N3CCOCC3)oc12 [AZD-8186] | > 30 µM (inactive)
Cc1ccc(NC(=O)c2ccc(CN3CC[C@H](N(C)C)C3)c(C(F)(F)F)c2)cc1Nc1nccc(-c2cncnc2)n1 [BAFETINIB] | > 30 µM (inactive)
CCS(=O)(=O)N1CC(CC#N)(n2cc(-c3ncnc4[nH]ccc34)cn2)C1 [BARICITINIB] | > 30 µM (inactive)

Target: Activated CDC42 kinase 1 (Homo sapiens, UniProt Q07912)
Sequence (Q07912 whole entry): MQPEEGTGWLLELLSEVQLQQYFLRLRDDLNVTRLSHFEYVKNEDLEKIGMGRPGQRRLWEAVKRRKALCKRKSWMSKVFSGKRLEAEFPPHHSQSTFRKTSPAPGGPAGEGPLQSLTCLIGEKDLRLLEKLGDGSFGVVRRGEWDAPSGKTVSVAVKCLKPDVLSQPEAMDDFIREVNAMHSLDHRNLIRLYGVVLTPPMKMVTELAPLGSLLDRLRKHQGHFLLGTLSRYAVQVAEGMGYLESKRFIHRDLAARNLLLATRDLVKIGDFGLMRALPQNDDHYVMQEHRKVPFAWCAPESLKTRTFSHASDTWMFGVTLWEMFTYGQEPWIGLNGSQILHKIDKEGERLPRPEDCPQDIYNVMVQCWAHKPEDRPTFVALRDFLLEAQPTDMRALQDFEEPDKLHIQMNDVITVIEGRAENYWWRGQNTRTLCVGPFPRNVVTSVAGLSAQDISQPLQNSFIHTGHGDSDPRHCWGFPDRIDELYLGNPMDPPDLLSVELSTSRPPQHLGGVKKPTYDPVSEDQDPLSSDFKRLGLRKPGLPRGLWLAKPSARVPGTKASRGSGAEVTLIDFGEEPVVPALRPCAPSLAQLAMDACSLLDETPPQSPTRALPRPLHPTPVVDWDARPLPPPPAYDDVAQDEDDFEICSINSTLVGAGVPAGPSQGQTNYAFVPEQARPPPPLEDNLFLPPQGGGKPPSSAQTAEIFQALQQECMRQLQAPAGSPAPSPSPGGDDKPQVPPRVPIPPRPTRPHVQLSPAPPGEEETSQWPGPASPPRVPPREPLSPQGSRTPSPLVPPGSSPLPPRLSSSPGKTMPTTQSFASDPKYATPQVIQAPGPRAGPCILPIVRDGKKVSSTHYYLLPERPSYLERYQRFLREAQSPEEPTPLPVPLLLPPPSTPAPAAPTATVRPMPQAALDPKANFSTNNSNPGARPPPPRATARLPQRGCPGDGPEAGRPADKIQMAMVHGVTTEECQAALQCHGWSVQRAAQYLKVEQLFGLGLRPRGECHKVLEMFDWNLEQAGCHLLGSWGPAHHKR

Structure (SMILES) | Kd
CNS(=O)(=O)Nc1nccc(Cc2c(C)c3ccc(Oc4ncccn4)cc3oc2=O)c1F [AVUTOMETINIB] | > 30 µM (inactive)
COc1cc(CCc2cc(NC(=O)c3ccc(N4C[C@@H](C)N[C@@H](C)C4)cc3)n[nH]2)cc(OC)c1 [AZD-4547] | 0.148 µM
Cc1cc([C@@H](C)Nc2ccccc2C(=O)O)c2nc(N3CCOCC3)cc(=O)n2c1 [AZD-6482] | > 30 µM (inactive)
COc1ccc(-c2ccc3c(N4CCOC[C@@H]4C)nc(N4CCOC[C@@H]4C)nc3n2)cc1CO [AZD-8055] | > 30 µM (inactive)
C[C@@H](Nc1cc(F)cc(F)c1)c1cc(C(=O)N(C)C)cc2c(=O)cc(N3CCOCC3)oc12 [AZD-8186] | > 30 µM (inactive)
Cc1ccc(NC(=O)c2ccc(CN3CC[C@H](N(C)C)C3)c(C(F)(F)F)c2)cc1Nc1nccc(-c2cncnc2)n1 [BAFETINIB] | > 30 µM (inactive)
CCS(=O)(=O)N1CC(CC#N)(n2cc(-c3ncnc4[nH]ccc34)cn2)C1 [BARICITINIB] | > 30 µM (inactive)
